This passage reports Ki and Km results from ChEMBL document CHEMBL1130852, “In vitro evaluation and crystallographic analysis of a new class of selective, non-amide-based thrombin inhibitors” (Bioorg Med Chem Lett, 1998).

Values joined by “and” are separate entries in the source; they are usually repeats but may differ in a detail not shown here. Equal entries are not always repeated.

The target in data set [1] is Plasminogen (Homo sapiens, UniProt P00747). Kind of data set: Compound was tested in vitro for its ability to inhibit serine protease plasmin using tosyl-Gly-Pro-Lys-p-nitroanilide as substrate.
Plasminogen, sequence (P00747 97-580 limits assumed): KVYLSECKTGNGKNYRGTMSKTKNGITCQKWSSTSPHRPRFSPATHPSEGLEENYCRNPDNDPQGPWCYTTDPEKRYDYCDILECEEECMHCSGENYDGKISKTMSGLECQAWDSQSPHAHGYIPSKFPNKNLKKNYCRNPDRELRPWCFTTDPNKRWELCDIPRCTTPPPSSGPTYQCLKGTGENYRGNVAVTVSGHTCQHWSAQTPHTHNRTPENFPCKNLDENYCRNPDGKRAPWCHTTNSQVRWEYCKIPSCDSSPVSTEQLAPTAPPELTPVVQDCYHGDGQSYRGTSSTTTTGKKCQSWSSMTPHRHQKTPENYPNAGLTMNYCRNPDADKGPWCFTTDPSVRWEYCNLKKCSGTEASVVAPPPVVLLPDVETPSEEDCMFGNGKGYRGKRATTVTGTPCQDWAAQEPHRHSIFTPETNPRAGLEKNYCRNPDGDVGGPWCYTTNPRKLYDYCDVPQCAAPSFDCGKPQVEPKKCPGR
Plasminogen, sequence (P00747 581-810 limits assumed): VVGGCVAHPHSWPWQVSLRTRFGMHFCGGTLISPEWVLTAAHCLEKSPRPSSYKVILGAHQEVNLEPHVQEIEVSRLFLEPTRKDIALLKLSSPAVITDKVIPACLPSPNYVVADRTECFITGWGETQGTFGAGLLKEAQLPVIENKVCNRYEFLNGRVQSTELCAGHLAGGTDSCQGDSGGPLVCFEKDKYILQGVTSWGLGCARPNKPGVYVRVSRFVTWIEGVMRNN
Data set [2] can be described thus: Compound was tested in vitro for its ability to inhibit serine protease elastase using suc-Ala-Ala-Pro-Val-p-nitroanilide as substrate.
In data set [3] the target is Coagulation factor X (Homo sapiens, UniProt P00742). Briefly: Compound was tested in vitro for its ability to inhibit serine protease factor Xa using benzoyl-Ile-Glu-Gly-Arg-p-nitroanilide as substrate.
Coagulation factor X, sequence (P00742 41-179 limits assumed): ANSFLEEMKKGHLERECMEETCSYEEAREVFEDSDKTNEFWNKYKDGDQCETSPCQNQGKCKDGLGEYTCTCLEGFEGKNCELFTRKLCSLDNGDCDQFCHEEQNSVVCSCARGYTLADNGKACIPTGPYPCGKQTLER
Coagulation factor X, sequence (P00742 235-488 limits assumed): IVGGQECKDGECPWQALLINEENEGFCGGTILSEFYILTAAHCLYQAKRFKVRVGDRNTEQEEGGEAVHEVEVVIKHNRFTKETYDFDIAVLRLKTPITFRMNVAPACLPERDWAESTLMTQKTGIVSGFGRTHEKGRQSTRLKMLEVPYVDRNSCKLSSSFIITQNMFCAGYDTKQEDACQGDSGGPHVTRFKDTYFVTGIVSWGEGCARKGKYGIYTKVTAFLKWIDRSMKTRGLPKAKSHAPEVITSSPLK
Data set [4] addresses Urokinase-type plasminogen activator (Homo sapiens, UniProt P00749). Kind of data set: (§1) Compound was tested in vitro for its ability to inhibit serine protease urokinase using carbobenzyloxy-Phe-Val-Arg-p-nitroanilide as substrate.
Data set [5] concerns the target Prothrombin (Homo sapiens, UniProt P00734). Briefly: Compound was tested in vitro for its ability to inhibit serine protease thrombin using […] as substrate.
Data set [6] deals with CC(C)[C@H](NC(=O)[C@H](Cc1ccccc1)NC(=O)OCc1ccccc1)C(=O)N[C@@H](CCCN=C(N)N)C(=O)Nc1ccc([N+](=O)[O-])cc1. Described as §1.
Compound in data set [7]: C[C@H](NC(=O)CCC(=O)O)C(=O)N[C@@H](C)C(=O)N1CCC[C@H]1C(=O)N[C@@H](Cc1ccccc1)C(=O)Nc1ccc([N+](=O)[O-])cc1
Kind of data set: Compound was tested in vitro for its ability to inhibit serine protease Chymotrypsinogen using suc-Ala-Ala-Pro-Phe-p-nitroanilide as substrate.

Compound in data set [8]: CC(C)[C@H](NC(=O)[C@H](Cc1ccccc1)NC(=O)c1ccccc1)C(=O)N[C@@H](CCCN=C(N)N)C(=O)Nc1ccc([N+](=O)[O-])cc1
Kind of data set: Compound was tested in vitro for its ability to inhibit serine protease trypsin using benzoyl-Phe-Val-Arg-p-nitroanilide as substrate. The settings on record: Bos taurus.

A word on the Ki: it is a measure of affinity in units of concentration, obtained from inhibition or displacement. A lower Ki goes with higher affinity. Consider `Cc1cc(OCCN(C)c2ccncc2)cc(OS(=O)(=O)c2ccccc2Cl)c1`, for which the Ki in data set [1] is > 200 µM; in data set [2], > 200 µM; in data set [3], 160 µM; in data set [4], > 200 µM.
Regarding `Cc1cc(OCC2CCCN(C(=N)N)C2)cc(OS(=O)(=O)c2ccccc2Cl)c1` (stereo unspecified), the Ki is > 200 µM in data set [1]; 0.32 µM in data set [5]; > 200 µM in data set [2]; 29 µM in data set [3]; > 200 µM in data set [4].
Take `Cc1cc(OCCCCCN=C(N)N)cc(OS(=O)(=O)c2ccccc2Cl)c1`: the Ki was > 200 µM in data set [1]; 0.26 µM in data set [5]; > 200 µM in data set [2]; 120 µM in data set [3]; > 200 µM in data set [4].
For the molecule `Cc1cc(OCCCN=C(N)N)cc(OS(=O)(=O)c2ccccc2Cl)c1`, the Ki in data set [1] is > 200 µM; in data set [5], 0.033 µM; in data set [2], > 200 µM; in data set [3], > 200 µM; in data set [4], > 200 µM.
The Km is the substrate concentration at which the rate is half of its maximum. As for “Urokinase-type plasminogen activator (Homo sapiens) (from UniProt P00749)”, in data set [6], the Km was 190 µM and 170 µM.
In the case of `Cc1cc(OCC2CCN(C(=N)N)CC2)cc(OS(=O)(=O)c2ccccc2Cl)c1`, the Ki in data set [1] is > 200 µM; in data set [5], 0.0046 µM; in data set [2], > 200 µM; in data set [3], 80 µM; in data set [4], > 200 µM.
Turning to `Cc1cc(OCCCCN=C(N)N)cc(OS(=O)(=O)c2ccccc2Cl)c1`, the Ki in data set [1] is > 200 µM; in data set [2] it was > 200 µM; in data set [3], 110 µM; in data set [4], > 200 µM.

B1: Chymotrypsin-C (Homo sapiens), Q99895 (protein)
chain: MLGITVLAALLACASSCGVPSFPPNLSARVVGGEDARPHSWPWQISLQYLKNDTWRHTCGGTLIASNFVLTAAHCISNTRTYRVAVGKNNLEVEDEEGSLFVGVDTIHVHKRWNALLLRNDIALIKLAEHVELSDTIQVACLPEKDSLLPKDYPCYVTGWGRLWTNGPIADKLQQGLQPVVDHATCSRIDWWGFRVKKTMVCAGGDGVISACNGDSGGPLNCQLENGSWEVFGIVSFGSRRGCNTRKKPVVYTRVSAYIDWINEKMQL
With B1, the Km in data set [7] was 60 µM and 100 µM.

B2: Serine protease 1 (Bos taurus), P00760 (protein)
chain: MKTFIFLALLGAAVAFPVDDDDKIVGGYTCGANTVPYQVSLNSGYHFCGGSLINSQWVVSAAHCYKSGIQVRLGEDNINVVEGNEQFISASKSIVHPSYNSNTLNNDIMLIKLKSAASLNSRVASISLPTSCASAGTQCLISGWGNTKSSGTSYPDVLKCLKAPILSDSSCKSAYPGQITSNMFCAGYLEGGKDSCQGDSGGPVVCSGKLQGIVSWGSGCAQKNKPGVYTKVCNYVSWIKQTIASN
As to B2, in data set [8], the Km was 160 µM and 100 µM.
